The values that follow come from patent US20160045513A1, “ISOXAZOLE COMPOUND FOR THE TREATMENT OF CANCER” (Novartis AG, priority 2007, published 2016).

The subject of test [1] is BT-474 xenograft. The test can be described thus: antitumor effect in the human breast cancer model BT-474. Type of test: in vivo, mouse. To be noted: for T/C (%) / ΔTumor volume (mm^3): qw, i.v., 21 days treatment; for ΔTumor volume (mm^3): mean ±SEM. How it is done:
The estrogen receptor positive cell line BT-474 was initially isolated from a human breast ductal carcinoma established from a solid, invasive ductal carcinoma of the breast obtained from a person (ATCC number HTB-20). The cells are grown in DMEM high glucose (4.5 g/l) supplemented with 10% FCS, […] and 1% sodium pyruvate. In preparation for cell inoculation, each mouse is subcutaneously implanted on the upper dorsal side with a 17β-Estradiol pellet (25 μg/day; 90 day release) using a trocar needle. BT-474 cells (5×10̂6) are injected in 200 μl Matrigel:HBSS (1:1 vol) (BD MatrigelTM Basement Membrane Matrix). The injection site is subcutaneously in the right flank. […] Tumor growth is monitored at regular intervals. The xenograft tumor sizes are measured manually with calipers and the tumor volume is estimated using the formula: (W×L×H×π/6), where width (W), height (H) and length (L) are the three largest diameters. Results are presented as mean ±SEM. Tumor data are analyzed by ANOVA with post hoc Dunnet's test for comparison of treatment versus control group. As a measure of efficacy the % T/C value is calculated at the end of the experiment according to: (Δtumor volumetreated/Δtumor volumecontrol)*100 where Δtumor volumes represent the mean tumor volume on the evaluation day minus the mean tumor volume at the start of the experiment. The antitumor effect of AUY922 is evaluated in the BT-474 xenograft model. In this study, the treatment period is 21 days. Each group consists of eight tumor bearing animals. At the end of the study, the tumor sizes in the treatment groups are compared to those of the vehicle treated groups and the effect is expressed as % T/C.

Test [2] has as its system BN472 xenograft. The test can be described thus: antitumor effect in the rat breast cancer model BN-472. It counts as in vivo. To be noted: for T/C (%) / ΔTumor volume (mm^3): qw, i.v.; for ΔTumor volume (mm^3): mean ±SEM. Here is the method: The transplantable rat breast cancer tumor BN472 is serially passaged as fragments in female syngeneic Brown Norway rats. The injection site is orthotopically in the mammary fat pad. Treatment with AUY922 is initiated when the average tumor volume reaches approximately 100 mm^3. Tumor growth is monitored at regular intervals. The xenograft tumor sizes are measured manually with calipers and the tumor volume is estimated using the formula: (W×L^2×π/6), where width (W) and height (H) are the two largest diameters. Results are presented as mean ±SEM. Tumor data were analyzed by ANOVA with post hoc Dunnet's test for comparison of treatment versus control group. As a measure of efficacy the % T/C value is calculated at the end of the experiment according to: (Δtumor volumetreated/Δtumor volumecontrol)*100 where Δtumor volumes represent the mean tumor volume on the evaluation day minus the mean tumor volume at the start of the experiment. The antitumor effect of AUY922 is evaluated in the BN472 xenograft model. Each group consists of seven tumor bearing animals. At the end of the study, the tumor sizes in the treatment groups are compared to those of the vehicle treated groups and the effect is expressed as %T/C.

For the compound `CCNC(=O)c1noc(-c2cc(C(C)C)c(O)cc2O)c1-c1ccc(CN2CCOCC2)cc1` [AUY922, 5-(2,4-Dihydroxy-5-isopropyl-phenyl)-4-(4-morpholin-4-ylmethyl-phenyl)-isoxazole-3-carboxylic acid ethylamide], the “T/C (%)” value in test [1] (8.3 mg/kg) was 43%; in test [1] (17 mg/kg) it was 9%; in test [1] (25 mg/kg) it was 3%; in test [2] (25 mg/kg), 78%; in test [2] (50 mg/kg), 21%. The “ΔTumor volume (mm^3)” value is listed as 229 ± 73 mm^3 in test [1] (8.3 mg/kg); 46 ± 27* mm^3 in test [1] (17 mg/kg, *P < 0.05); 15 ± 23* mm^3 in test [1] (25 mg/kg, *P < 0.05); 4357 ± 1338 mm^3 in test [2] (25 mg/kg); 1148 ± 152* mm^3 in test [2] (50 mg/kg, *P < 0.05). The “reduction of tumor sizes versus vehicle” value in test [1] (once per week at 17-25 mg/kg) and in test [2] (once per week at 50 mg/kg) was “Statistically significant reduction of tumor sizes” throughout.
